# Test results published in patent US10588280B2, “Aided delivery of plant treatment agents” (Monsanto Technology LLC, priority 2014, dated 2020).
# System: haploid corn seedlings (SAM)
# Assay: Example 2: single submerged centrifugation in colchicine, survival and doubling success
# Type: in vivo
# Settings: for DE / Fert. Success / Initial Survival / Poll. Success: single submerged spin 50 g 10 min
# Text: Seeds of 5 different F1 hybrid-derived haploid commercial corn lines were randomly-selected and germinated in a greenhouse. The resulting seedlings were removed from soil or growth media at the V1-V2 growth stage and the soil or growth media rinsed from the plants with water. One sample of several random seedlings within each haploid line was placed in a centrifuge sample container without regard to how the shoot-root axis of the plants would be orientated with respect to the force of acceleration generated during the planned centrifugation. Next, a plant treatment solution comprising 1000 ppm colchicine was poured into the container such that the solution submerged each plants SAM, and then the sample centrifuged at 50 g for 10 min with the SAMs submerged in the plant treatment agent.
# Following centrifugation, the plants were removed, rinsed with water to remove any remaining colchicine solution, and then recovered and tended in a light, humidity, and temperature-controlled greenhouse for several days before being transplanted to a nursery greenhouse.
# The control sample received no centrifugation or colchicine exposure, but was otherwise handled identically as the treatment sample. During the subsequent growth of the plants, the initial survival, pollination success, fertilization success, and doubling efficiency (DE) were determined within each sample.
# [1] = Ave: of five lines, 1000 ppm colchicine
# [2] = centrifuged samples, 1000 ppm colchicine, submerged 50 g 10 min, vs untreated controls
# [3] = line F1004, 1000 ppm colchicine
# [4] = line F1045, 1000 ppm colchicine
# [5] = line F1095, 1000 ppm colchicine
# [6] = line F1118, 1000 ppm colchicine
# [7] = line F1900, 1000 ppm colchicine
compound,measurement,setting,value
COc1cc2c(c(OC)c1OC)-c1ccc(OC)c(=O)cc1[C@@H](NC(C)=O)CC2 [colchicine],DE,[1],30%
same,Fert. Success,[1],84%
same,Initial Survival,[1],77%
same,Poll. Success,[1],47%
same,drop in initial survival as compared to controls,[2],15%
same,improvement of overall average DE as compared to controls,[2],25%
same,DE,[3],50%
same,Fert. Success,[3],100%
same,Initial Survival,[3],100%
same,Poll. Success,[3],50%
same,DE,[4],25%
same,Fert. Success,[4],100%
same,Initial Survival,[4],58%
same,Poll. Success,[4],43%
same,DE,[5],47%
same,Fert. Success,[5],78%
same,Initial Survival,[5],87%
same,Poll. Success,[5],69%
same,DE,[6],10%
same,Fert. Success,[6],100%
same,Initial Survival,[6],40%
same,Poll. Success,[6],25%
same,DE,[7],10%
same,Fert. Success,[7],40%
same,Initial Survival,[7],100%
same,Poll. Success,[7],50%
same,individuals that produced pollen and silks,minimum over all five inbred samples receiving the experimental treatment,at least 25%
